This passage reports IC50 results from BindingDB's records for doi:10.1021/jm00061a022 (Merck Research Laboratories, 1993).

SMILES strings stand for the structures.

Holding throughout (assay): HIV-1 RT Assay
Holding throughout (conditions): pH 8.2

Assay [1] addresses Gag-Pol polyprotein [588-1127,Y768C]/[588-1147,Y768C] (Human immunodeficiency virus 1, UniProt P04585, Y768C).
The target in assay [2] is Gag-Pol polyprotein [588-1027]/[588-1147] (Human immunodeficiency virus 1, UniProt P04585).
Assay [3] deals with Gag-Pol polyprotein [588-1027,K690N]/[588-1147,K690N] (Human immunodeficiency virus 1, UniProt P04585, K690N).

Take `[O-][S+](Cc1[nH]c2ccccc2c1Sc1ccccc1)c1ccccc1` (configuration not stated) [2-[(benzenesulfinyl)methyl]-3-(phenylsulfanyl)-1H-indole]: the IC50 (commonly the concentration that inhibits the measured activity by half) in assay [1] turned out to be 2.99 µM; in assay [2], 0.063 µM; in assay [3], 2.57 µM.

In turn, `[O-][S+](Cc1[nH]c2ccc(Cl)cc2c1Sc1ccccc1)c1ccccc1` (configuration not stated) [2-[(benzenesulfinyl)methyl]-5-chloro-3-(phenylsulfanyl)-1H-indole] yielded a concentration for half-maximal inhibition (IC50) in assay [2] of 0.112 µM.

In assay [2], `[O-][S+](Cc1[nH]c2ccccc2c1[S+]([O-])c1ccccc1)c1ccccc1` (configuration not stated) [3-(benzenesulfinyl)-2-[(benzenesulfinyl)methyl]-1H-indole] displayed an IC50 of 72.8 µM.

Regarding `NC(=O)c1[nH]c2ccc(Cl)cc2c1[S+]([O-])c1ccccc1` (configuration not stated) [3-(benzenesulfinyl)-5-chloro-1H-indole-2-carboxamide], the IC50 in assay [1] came out at 1.39 µM; in assay [2], 0.023 µM; in assay [3] it was 2.76 µM.

Turning to `NC(=O)c1[nH]c2ccc(Cl)cc2c1Sc1ccccc1` [5-chloro-3-(phenylsulfanyl)-1H-indole-2-carboxamide], the IC50 worked out at 1.04 µM in assay [1], 0.014 µM in assay [2] and 1.46 µM in assay [3].

The molecule `CNC(=O)c1[nH]c2ccc(Cl)cc2c1Sc1ccccc1` [5-chloro-N-methyl-3-(phenylsulfanyl)-1H-indole-2-carboxamide] had a half-maximal inhibitory concentration (IC50) in assay [2] of 0.022 µM.

Turning to `NC(=O)c1[nH]c2ccc(Cl)cc2c1S(=O)(=O)c1ccccc1` [5Cl3PhSO2-2IndolCONH2], the figures for the concentration for half-maximal inhibition (IC50) in assay [1], in assay [2] and in assay [3] were 0.071 µM, 0.003 µM and 0.116 µM, respectively.

Take `CC(C)=CCN1Cc2cc(Cl)cc3[nH]c(=S)n(c23)C[C@@H]1C` [(11S)-6-chloro-11-methyl-10-(3-methylbut-2-en-1-yl)-1,3,10-triazatricyclo[6.4.1.0^{4,13}]trideca-4,6,8(13)-triene-2-thione]: the IC50 in assay [1] worked out at 39.5 µM; in assay [2] it was 0.311 µM; in assay [3], 7.32 µM.

Take `CN(C)C(=O)c1[nH]c2ccccc2c1Sc1ccccc1` [N,N-dimethyl-3-(phenylsulfanyl)-1H-indole-2-carboxamide]: in assay [2], 87.6 µM corresponded to half-maximal inhibition (IC50).

For `CNC(=O)c1[nH]c2ccccc2c1Sc1ccccc1` [N-methyl-3-(phenylsulfanyl)-1H-indole-2-carboxamide], it took 0.746 µM to reach half-maximal inhibition in assay [2] (IC50).

Turning to `COC(=O)c1[nH]c2ccccc2c1Sc1ccccc1` [methyl 3-(phenylsulfanyl)-1H-indole-2-carboxylate], in assay [2], inhibition was half-maximal at 2.5 µM (IC50).

On to `COC(=O)c1[nH]c2ccc(Cl)cc2c1Sc1ccccc1` [methyl 5-chloro-3-(phenylsulfanyl)-1H-indole-2-carboxylate], for which, in assay [2], the IC50 is 0.156 µM.
